# Measured values: US11446287B2, “Compounds and methods for EP300 or CBP modulation and indications therefor” (Opna Immuno-Oncology SA, priority 2019, dated 2022)
# Biological target: T1, Recombinant human BRD4 containing dual bromodomains (BRD4-BD12 (1-477)) (Homo sapiens, UniProt O60885)
# T1 construct: Recombinant human BRD4 containing dual bromodomains (BRD4-BD12 (1-477)); made in house; host or cells: E. coli BL21-CodonPlus (DE3), modified pET vector
# Assay: BRD4 Alphascreen binding assay
# Summary of the method: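 AlphaScreen proximity between Ni-chelate-bound BRD4-BD12 (1-477) and streptavidin-captured H4 K5/K8/K12/K16-acetyl peptide measured after 1 h room-temperature compound incubation and 30 min with 7.5 μg/ml beads. Buffer: 50 mM HEPES pH 7.5, 50 mM NaCl, 0.01% BSA, 0.01% Triton X-100; data plate-normalized and four-parameter fit for IC50.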
row,Structure (SMILES),IC50
1,"COc1cc(C(=O)O)cc(OCC2CC2)c1-c1cn([C@@H](C)c2ccccn2)c2ncc(-c3c(C)noc3C)cc12 [P-0152, (S)-3-(cyclopropylmethoxy)-4-(5-(3,5-dimethylisoxazol-4-yl)-1-(1-(pyridin-2-yl)ethyl)-1H-pyrrolo[2,3-b]pyridin-3-yl)-5-methoxybenzoic acid]",8 to 1000 µM
2,"COc1cc(C(=O)O)cc(OCC(F)(F)F)c1-c1cn([C@@H](C)c2ccccn2)c2ncc(-c3c(C)noc3C)cc12 [P-0153, (S)-4-(5-(3,5-dimethylisoxazol-4-yl)-1-(1-(pyridin-2-yl)ethyl)-1H-pyrrolo[2,3-b]pyridin-3-yl)-3-methoxy-5-(2,2,2-trifluoroethoxy)benzoic acid]",8 to 1000 µM
3,"Cc1noc(C)c1-c1cnc2c(-c3ccc(C(=O)O)cc3)c(C(F)(F)F)n([C@@H](C)c3ccccn3)c2c1 [P-0154, (S)-4-(6-(3,5-dimethylisoxazol-4-yl)-1-(1-(pyridin-2-yl)ethyl)-2-(trifluoromethyl)-1H-pyrrolo[3,2-b]pyridin-3-yl)benzoic acid]",0.0001 to 1 µM
4,"Cc1noc(C)c1-c1cnc2c(-c3ccccc3Cl)cn(C(C)(c3ccccn3)c3ccccn3)c2c1 [P-0155, 4-(3-(2-chloropheny1)-1-(1,1-di(pyridin-2-yl)ethyl)-1H-pyrrolo[3,2-b]pyridin-6-yl)-3,5-dimethylisoxazole]",0.0001 to 1 µM
5,"Cc1noc(C)c1-c1cnc2c(c1)c(-c1ccc(C(=O)O)cc1OC(F)(F)F)cn2C(C1CC1)C1CC1 [P-0156, 4-(1-(dicyclopropylmethyl)-5-(3,5-dimethylisoxazol-4-yl)-1H-pyrrolo[2,3-b]pyridin-3-yl)-3-(trifluoromethoxy)benzoic acid]",8 to 1000 µM
6,"Cc1noc(C)c1-c1cnc2c(c1)c(-c1ccc(C(=O)O)cc1OC(F)(F)F)cn2CC1CC(F)(F)C1 [P-0157, 4-(1-((3,3-difluorocyclobutyl)methyl)-5-(3,5-dimethylisoxazol-4-yl)-1H-pyrrolo[2,3-b]pyridin-3-yl)-3-(trifluoromethoxy)benzoic acid]",0.0001 to 1 µM
7,"Cc1noc(C)c1-c1cnc2c(c1)c(-c1ccc(C(=O)O)cc1OC(F)(F)F)cn2-c1ccccn1 [P-0158, 4-(5-(3,5-dimethylisoxazol-4-yl)-1-(pyridin-2-yl)-1H-pyrrolo[2,3-b]pyridin-3-yl)-3-(trifluoromethoxy)benzoic acid]",0.0001 to 1 µM
8,"Cc1noc(C)c1-c1cnc2c(Cc3ccccn3)cn(-c3ccc(C(=O)O)cc3OC(F)(F)F)c2c1 [P-0159, 4-(6-(3,5-dimethylisoxazol-4-yl)-3-(pyridin-2-ylmethyl)-1H-pyrrolo[3,2-b]pyridin-1-yl)-3-(trifluoromethoxy)benzoic acid]",0.0001 to 1 µM
9,"Cc1noc(C)c1-c1cnc2c(-c3cnn(C)c3)c(C(F)(F)F)n([C@@H](C)c3ccccn3)c2c1 [P-0160, (S)-3,5-dimethyl-4-(3-(1-methyl-1H-pyrazol-4-yl)-1-(1-(pyridin-2-yl)ethyl)-2-(trifluoromethyl)-1H-pyrrolo[3,2-b]pyridin-6-yl)isoxazole]",0.0001 to 1 µM
10,"Cc1noc(C)c1-c1cnc2c(-c3cccc(CC(=O)O)c3)c(C(F)(F)F)n([C@@H](C)c3ccccn3)c2c1 [P-0161, (S)-2-(3-(6-(3,5-dimethylisoxazol-4-yl)-1-(1-(pyridin-2-yl)ethyl)-2-(trifluoromethyl)-1H-pyrrolo[3,2-b]pyridin-3-yl)phenyl)acetic acid]",8 to 1000 µM
11,"Cc1noc(C)c1-c1cnc2c(-c3cccc(C(=O)O)c3)c(C(F)(F)F)n([C@@H](C)c3ccccn3)c2c1 [P-0162, (S)-3-(6-(3,5-dimethylisoxazol-4-yl)-1-(1-(pyridin-2-yl)ethyl)-2-(trifluoromethyl)-1H-pyrrolo[3,2-b]pyridin-3-yl)benzoic acid]",8 to 1000 µM
12,"Cc1noc(C)c1-c1cnc2c(C(O)(C3CC3)C3CC3)cn(-c3ccc(C(=O)O)cc3OC(F)(F)F)c2c1 [P-0163, 4-(3-(dicyclopropyl(hydroxy)methyl)-6-(3,5-dimethylisoxazol-4-yl)-1H-pyrrolo[3,2-b]pyridin-1-yl)-3-(trifluoromethoxy)benzoic acid]",8 to 1000 µM
13,"Cc1noc(C)c1-c1cnc2c(-c3cc(C(=O)O)ccc3Cl)cn(C(C)(c3ccccn3)c3ccccn3)c2c1 [P-0164, 4-chloro-3-(1-(1,1-di(pyridin-2-yl)ethyl)-6-(3,5-dimethylisoxazol-4-yl)-1H-pyrrolo[3,2-b]pyridin-3-yl)benzoic acid]",1 to 8 µM
14,"CCOc1cc(C(=O)O)cc(OCC)c1-n1cc(C(O)(C2CC2)C2CC2)c2ncc(-c3c(C)noc3C)cc21 [P-0165, 4-(3-(dicyclopropyl(hydroxy)methyl)-6-(3,5-dimethylisoxazol-4-yl)-1H-pyrrolo[3,2-b]pyridin-1-yl)-3,5-diethoxybenzoic acid]",8 to 1000 µM
15,"Cc1noc(C)c1-c1cnc2c(-c3cc(C(=O)O)ccc3C#N)cn(C(C)(c3ccccn3)c3ccccn3)c2c1 [P-0166, 4-cyano-3-(1-(1,1-di(pyridin-2-yl)ethyl)-6-(3,5-dimethylisoxazol-4-yl)-1H-pyrrolo[3,2-b]pyridin-3-yl)benzoic acid]",0.0001 to 1 µM
16,"C#Cc1ccccc1-c1cn(C(C)(c2ccccn2)c2ccccn2)c2cc(-c3c(C)noc3C)cnc12 [P-0167, 4-(1-(1,1-di(pyridin-2-yl)ethyl)-3-(2-ethynylphenyl)-1H-pyrrolo[3,2-b]pyridin-6-yl)-3,5-dimethylisoxazole]",0.0001 to 1 µM
17,"CCOc1cc(C(=O)O)cc(OCC)c1-n1cc(-c2ccccc2)c2ncc(-c3c(C)noc3C)cc21 [P-0168, 4-(6-(3,5-dimethylisoxazol-4-yl)-3-phenyl-1H-pyrrolo[3,2-b]pyridin-1-yl)-3,5-diethoxybenzoic acid]",1 to 8 µM
18,"Cc1noc(C)c1-c1cnc2c(-c3ccccc3C#N)cn(C(C)(c3ccccn3)c3ccccn3)c2c1 [P-0169, 2-(1-(1,1-di(pyridin-2-yl)ethyl)-6-(3,5-dimethylisoxazol-4-yl)-1H-pyrrolo[3,2-b]pyridin-3-yl)benzonitrile]",0.0001 to 1 µM
